# Data taken from PubChem BioAssay AID1259411 (Chemical Carcinogenesis Research Information System (CCRIS), 2018).
# The source made the active and inactive calls. No rule for the calls is given here.
# System: rodent carcinogenicity bioassays, tumor incidence
# Experiment: CCRIS carcinogenicity studies
# Text: The CCRIS database contains chemical records with carcinogenicity, mutagenicity, tumor promotion, and tumor inhibition test results. It was developed by the National Cancer Institute (NCI). Data are derived from studies cited in primary journals, current awareness tools, NCI reports, and other sources. Test results have been reviewed by experts in carcinogenesis and mutagenesis.
# CCRIS provides historical information from the years 1985 - 2011. It is no longer updated.
# This is an archive assay for CCRIS carcinogenicity studies.
smiles,measurement,setting,value
C=CC(=O)OCC,carcinogen call,"Species: MOUSE, Strain/Sex: B6C3F1/FEMALE, Route: GAVAGE, Dose: 0, 100, 200 MG/KG IN CORN OIL FOR 103 WK, Dose: 0, 100, 200 MG/KG IN CORN OIL FOR 103 WK, Tumor Site: Type of Lesion: FORESTOMACH: SQUAMOUS CELL PAPILLOMA OR CARCINOMA",active; positive
same,carcinogen call,"Species: MOUSE, Strain/Sex: B6C3F1/FEMALE, Route: INHALATION, Dose: 0, 5 PPM 6 HR/D 5 D/WK FOR 24 MO (STUDY DURATION: 24 MO)",inactive; negative
same,carcinogen call,"Species: MOUSE, Strain/Sex: B6C3F1/FEMALE, Route: INHALATION, Dose: 0, 25, 75 PPM 6 HR/D 5 D/WK FOR 27 MO (STUDY DURATION: 27 MO), Dose: 0, 25, 75 PPM 6 HR/D 5 D/WK FOR 27 MO (STUDY DURATION: 27 MO)",inactive; negative
same,carcinogen call,"Species: MOUSE, Strain/Sex: B6C3F1/FEMALE, Route: INHALATION, Dose: 0, 225 PPM 6 HR/D 5 D/WK FOR 6 MO (STUDY DURATION: 27 MO)",inactive; negative
same,carcinogen call,"Species: MOUSE, Strain/Sex: B6C3F1/MALE, Route: GAVAGE, Dose: 0, 100, 200 MG/KG IN CORN OIL FOR 103 WK, Dose: 0, 100, 200 MG/KG IN CORN OIL FOR 103 WK, Tumor Site: Type of Lesion: FORESTOMACH: SQUAMOUS CELL PAPILLOMA, SQUAMOUS CELL CARCINOMA",active; positive
same,carcinogen call,"Species: MOUSE, Strain/Sex: B6C3F1/MALE, Route: INHALATION, Dose: 0, 5 PPM 6 HR/D 5 D/WK FOR 24 MO (STUDY DURATION: 24 MO)",inactive; negative
same,carcinogen call,"Species: MOUSE, Strain/Sex: B6C3F1/MALE, Route: INHALATION, Dose: 0, 25, 75 PPM 6 HR/D 5 D/WK FOR 27 MO (STUDY DURATION: 27 MO), Dose: 0, 25, 75 PPM 6 HR/D 5 D/WK FOR 27 MO (STUDY DURATION: 27 MO)",inactive; negative
same,carcinogen call,"Species: MOUSE, Strain/Sex: B6C3F1/MALE, Route: INHALATION, Dose: 0, 225 PPM 6 HR/D 5 D/WK FOR 6 MO (STUDY DURATION: 27 MO)",inactive; negative
same,carcinogen call,"Species: MOUSE, Strain/Sex: C3H/MALE, Route: DERMAL, Dose: 0, 23 MG IN 25 µL ACETONE 3/WK FOR LIFESPAN (STUDY DURATION: LIFESPAN)",inactive; negative
same,carcinogen call,"Species: MOUSE, Strain/Sex: TGAC/FEMALE, Route: DERMAL, Dose: 0, 60, 300, 600 UMOL IN 200 µL ACETONE 3/WK FOR 20 WK (STUDY DURATION: 20 WK), Dose: 0, 60, 300, 600 UMOL IN 200 µL ACETONE 3/WK FOR 20 WK (STUDY DURATION: 20 WK)",inactive; negative
same,carcinogen call,"Species: RAT, Strain/Sex: F344/FEMALE, Route: GAVAGE, Dose: 0, 100, 200 MG/KG IN CORN OIL FOR 103 WK, Dose: 0, 100, 200 MG/KG IN CORN OIL FOR 103 WK, Tumor Site: Type of Lesion: FORESTOMACH: SQUAMOUS CELL PAPILLOMA, SQUAMOUS CELL PAPILLOMA OR CARCINOMA",active; positive
same,carcinogen call,"Species: RAT, Strain/Sex: F344/FEMALE, Route: INHALATION, Dose: 0, 5 PPM 6 HR/D 5 D/WK FOR 24 MO (STUDY DURATION: 24 MO)",inactive; negative
same,carcinogen call,"Species: RAT, Strain/Sex: F344/FEMALE, Route: INHALATION, Dose: 0, 25, 75 PPM 6 HR/D 5 D/WK FOR 27 MO (STUDY DURATION: 27 MO), Dose: 0, 25, 75 PPM 6 HR/D 5 D/WK FOR 27 MO (STUDY DURATION: 27 MO)",inactive; negative
same,carcinogen call,"Species: RAT, Strain/Sex: F344/FEMALE, Route: INHALATION, Dose: 0, 225 PPM 6 HR/D 5 D/WK FOR 6 MO (STUDY DURATION: 27 MO)",inactive; negative
same,carcinogen call,"Species: RAT, Strain/Sex: F344/MALE, Route: GAVAGE, Dose: 0, 100, 200 MG/KG IN CORN OIL FOR 103 WK, Dose: 0, 100, 200 MG/KG IN CORN OIL FOR 103 WK, Tumor Site: Type of Lesion: FORESTOMACH: SQUAMOUS CELL PAPILLOMA, SQUAMOUS CELL CARCINOMA",active; positive
same,carcinogen call,"Species: RAT, Strain/Sex: F344/MALE, Route: INHALATION, Dose: 0, 5 PPM 6 HR/D 5 D/WK FOR 24 MO (STUDY DURATION: 24 MO)",inactive; negative
same,carcinogen call,"Species: RAT, Strain/Sex: F344/MALE, Route: INHALATION, Dose: 0, 25, 75 PPM 6 HR/D 5 D/WK FOR 27 MO (STUDY DURATION: 27 MO), Dose: 0, 25, 75 PPM 6 HR/D 5 D/WK FOR 27 MO (STUDY DURATION: 27 MO)",inactive; negative
same,carcinogen call,"Species: RAT, Strain/Sex: F344/MALE, Route: INHALATION, Dose: 0, 225 PPM 6 HR/D 5 D/WK FOR 6 MO (STUDY DURATION: 27 MO)",inactive; negative
COP(=O)(NC(C)=O)SC (centres undefined),carcinogen call,"Species: Mouse, Strain/Sex: CD-1/Female, Route: Oral, Dose: 0, 50, 250, 1000 ppm (0; 8; 42; 167 mg/kg/d) in feed for 104 wk, Dose: 0, 50, 250, 1000 ppm (0; 8; 42; 167 mg/kg/d) in feed for 104 wk, Tumor Site: Type of Lesion: Liver: Hepatocellular carcinoma and adenoma (highest dose only)","inactive; negative; purity = 92.7, 92.1%"
same,carcinogen call,"Species: Mouse, Strain/Sex: CD-1/Male, Route: Oral, Dose: 0, 50, 250, 1000 ppm (0; 7; 36; 146 mg/kg/d) in feed for 104 wk, Dose: 0, 50, 250, 1000 ppm (0; 7; 36; 146 mg/kg/d) in feed for 104 wk","inactive; negative; purity = 92.7, 92.1%"
ONc1ccc2ccccc2c1,carcinogen call,"Species: DOG, Strain/Sex: BEAGLE, Route: INTRAVESICULAR, Dose: 5 MG IN DMSO EVERY TWO WK FOR 30 MO, Tumor Site: Type of Lesion: URINARY BLADDER: PAPILLARY TRANSITIONAL CELL CARCINOMA (INVASIVE)",active; positive
same,carcinogen call,"Species: MOUSE, Strain/Sex: BALB, Route: SUBCUTANEOUS, Dose: 100 UG IN AQUEOUS GELATIN 1/D FOR 5 D, Tumor Site: Type of Lesion: LUNG: ADENOMA",active; positive
same,carcinogen call,"Species: MOUSE, Strain/Sex: SWISS/FEMALE, Route: SUBCUTANEOUS, Dose: 100 UG IN GELATIN ON D 1, 3 AND 5 OF LIFE, Tumor Site: Type of Lesion: LUNG: ADENOMA, CARCINOMA",active; positive
same,carcinogen call,"Species: MOUSE, Strain/Sex: SWISS/MALE, Route: SUBCUTANEOUS, Dose: 100 UG IN GELATIN ON D 1, 3 AND 5 OF LIFE, Tumor Site: Type of Lesion: LIVER: HEPATOMA",active; positive
same,carcinogen call,"Species: RAT, Strain/Sex: STRAIN-CB/MALE, Route: INTRAPERITONEAL, Dose: 50 MG/KG IN ARACHIS OIL 2/WK FOR 3 MO, Tumor Site: Type of Lesion: PERITONEAL CAVITY: SARCOMA, CARCINOMA",active; positive
C[C@]12CC[C@@H]3c4ccc(O)cc4CC[C@H]3[C@@H]1CCC2=O,carcinogen call,"Species: HAMSTER, Route: SUBCUTANEOUS, SUBCUTANEOUS IMPLANT, Tumor Site: Type of Lesion: KIDNEY",active; positive
same,carcinogen call,"Species: HAMSTER, Strain/Sex: SYRIAN/MALE, Route: SUBCUTANEOUS IMPLANT, Dose: 0, 20 MG PELLET, SINGLE DOSE, Tumor Site: Type of Lesion: KIDNEY",active; positive
same,carcinogen call,"Species: HAMSTER, Strain/Sex: SYRIAN/MALE, Route: SUBCUTANEOUS IMPLANT, Dose: 0, 20 MG IN PELLETS IMPLANTED EVERY 2.5 MO FOR 9 MO (STUDY DURATION: 9 MO), Tumor Site: Type of Lesion: KIDNEY: TUMOR",active; positive
same,carcinogen call,"Species: HAMSTER, Strain/Sex: SYRIAN/MALE, Route: SUBCUTANEOUS, Tumor Site: Type of Lesion: KIDNEY, PITUITARY GLAND: ADENOMA",active; positive
same,carcinogen call,"Species: HUMAN, Tumor Site: Type of Lesion: UTERUS (ENDOMETRIUM)",active; positive
same,carcinogen call,"Species: MOUSE, Route: ORAL, SUBCUTANEOUS, DERMAL, SUBCUTANEOUS IMPLANT, Tumor Site: Type of Lesion: MAMMARY GLAND",active; positive
same,carcinogen call,"Species: MOUSE, Strain/Sex: C3H, C3HE(MTV-)/MALE, Route: ORAL, Dose: 125, 2000 UG/L IN DRINKING WATER, Tumor Site: Type of Lesion: MAMMARY GLAND",active; positive
same,carcinogen call,"Species: MOUSE, Strain/Sex: C3R3(MTV+)/MALE, Route: DIET, Dose: 0, 0.06, 0.6, 6 UG/D, Tumor Site: Type of Lesion: MAMMARY GLAND",active; positive
same,carcinogen call,"Species: MOUSE, Strain/Sex: GRS/AFIB(MTV+)/FEMALE, Route: ORAL, Dose: 0, 0.5 UG/ML FOR 14-25 WK IN DRINKING WATER, Tumor Site: Type of Lesion: UTERUS",active; positive
same,carcinogen call,"Species: RAT, Route: SUBCUTANEOUS, SUBCUTANEOUS IMPLANT, Tumor Site: Type of Lesion: ADRENAL GLAND, KIDNEY, MAMMARY GLAND, PITUITARY GLAND, URINARY BLADDER, Tumor Site: Type of Lesion: ADRENAL GLAND, KIDNEY, MAMMARY GLAND, PITUITARY GLAND, URINARY BLADDER",active; positive
same,carcinogen call,"Species: RAT, Strain/Sex: AUGUST/MALE,FEMALE, Route: SUBCUTANEOUS IMPLANT, Dose: 8-12 MG PELLET, SINGLE DOSE, Tumor Site: Type of Lesion: MAMMARY GLAND",active; positive
same,carcinogen call,"Species: RAT, Strain/Sex: AXC/MALE,FEMALE, Route: SUBCUTANEOUS IMPLANT, Dose: 8-12 MG PELLET, SINGLE DOSE, Tumor Site: Type of Lesion: MAMMARY GLAND",active; positive
same,carcinogen call,"Species: RAT, Strain/Sex: COPENHAGEN/MALE,FEMALE, Route: SUBCUTANEOUS IMPLANT, Dose: 8-12 MG PELLET, SINGLE DOSE, Tumor Site: Type of Lesion: URINARY BLADDER",active; positive
same,carcinogen call,"Species: RAT, Strain/Sex: F344/MALE,FEMALE, Route: SUBCUTANEOUS IMPLANT, Dose: 8-12 MG PELLET, SINGLE DOSE, Tumor Site: Type of Lesion: MAMMARY GLAND",active; positive
